# Test results taken from patent publication US20090149540A1, “Compositions and Methods for Attenuating Mitochondria-Mediated Cell Injury” (priority 2005, published 2009).
# Key:
# [1] = radioactive tracer studies in whole animals; cited from earlier work
# [2] = system: entire mitochondrial protein extract; test: Biotin-switch analysis of mitochondrial protein S-nitrosation; type: biochemical, rat; settings: for S-nitrosation of mitochondrial protein, comparison of NO* donors: entire mitochondrial protein extract
# Method: (§1) Rat heart mitochondria were isolated using differential centrifugation (Tompkins, et al. (2005) Biochim. Biophys. Acta PMID: 16278076). Protein was determined by the Folin-phenol method (Lowry, et al. (1951) J. Bio. Chem. 193:265-75) against a standard curve constructed using bovine serum albumin. Mitochondrial incubations and all subsequent steps were performed in the dark. One mg of mitochondrial protein was suspended in 1 mL of mitochondrial respiration buffer (Tompkins, et al. (2005) supra) containing respiratory substrates glutamate (5 mM), malate (2.5 mM) and succinate (5 mM). […] Samples were centrifuged (5 minutes, 14,000×g), and supernatants removed. The pellets were then resuspended in 1 mL of respiration buffer, and centrifuged again. Pellets were frozen in liquid N2 for subsequent analysis. For ONOO^− treatments, 4 μL of 25 mM ONOO^− stock (100 μM final concentration) was added the cap of the reaction tube, the cap quickly closed and the tube shaken immediately. The process was then repeated twice at 30 second intervals, for a total of 3 additions. Mitochondria were then pelleted, washed, and frozen as for S-nitrosoglutathione samples. Complex I activity was assayed as the rotenone-sensitive oxidation of NADH, at 340 nm in the presence of coenzyme Q1 (Borutaite, et al. (2000) supra). Complex IV was assayed by monitoring the cyanide-sensitive first-order oxidation of reduced cytochrome c, at 550 nm according to established methods (Cleeter, et al. (1994) supra).
# For biotin-switch analysis, intact mitochondrial pellets (1 mg protein solubilized in extraction buffer) or chromatography column fractions were analyzed in accordance with known methods (Jaffrey & Snyder (2001) supra). Samples were separated in duplicate on non-reducing SDS-PAGE gels; half the gel was stained with COOMASSIE® blue, and the other half blotted and probed with streptavidin-HRP and ECL™ detection (GE biosciences) Blots and stained gels were aligned, and S-nitrosated proteins excised, trypsinized, and identified by peptide mass fingerprinting. Mass spectra (MALDI-TOF) were analyzed using the MASCOT™ algorithm available on the world-wide web at matrixscience.com.
# [3] = system: isolated adult rat cardiomyocytes; test: Cardiomyocyte model of ischemia-reperfusion injury, cell viability by Trypan blue exclusion; type: cell-based; settings: 10 μM or 20 μM; 1 hour ischemia, 30 minutes reoxygenation
# Method: Isolated adult rat cardiomyocytes were subjected to 1 hour ischemia (anoxic, glucose free medium, pH 6.5) followed by 30 minutes reoxygenation (labeled “HR”). Cell viability was assayed by Trypan blue exclusion. […] All data are means±SEM, N>3.
# Adult rat cardiomyocytes were prepared by collagenase perfusion according to standard methods (Dai, et al. (2001) supra), yielding ˜4×10^6 cells per heart, >80% rod-shaped and viable. Incubations were in a shaking water bath at 37° C., each utilizing 5×10^5 cells in 5 mL of the KH buffers described below. For the control, cells were incubated for 2 hours in oxygenated KH buffer (95/5 O2/CO2). For ischemia-reperfusion treatment, cells were subjected to 30 minutes in oxygenated KH buffer, 1 hour in “ischemic” KH buffer (95/5 N2/CO2, pH 6.5, no glucose), and 30 minutes in oxygenated KH buffer. For the ischemia-reperfusion injury and test compound group of cells, ischemia-reperfusion injury was carried out as described above with test compound present during the 30 minute equilibration prior to ischemia-reperfusion and absent during ischemia. […] At the end of each protocol, cell viability was assayed (Trypan blue), and mitochondrial function determined (measurement of ΔΨm with the fluorescent probe TMRE, respiration with an O2 electrode, and S-nitrosothiol content by chemiluminescence and biotin-switch.
# [4] = target: T1, mitochondrial complex I (Rattus norvegicus, UniProt Q66HF1); test: Complex I activity (rotenone-sensitive NADH/Co-Q1 oxidation/reduction) in treated mitochondria; type: biochemical; settings: S-nitrosoglutathione treatment of mitochondria; exposure to light
# T1 construct: Rat heart mitochondria were isolated using differential centrifugation; from tissue; host or cells: rat heart mitochondria (male Sprague-Dawley rats)
# From the text: Assuming heart mitochondria contain ˜50 pmol complex I per mg protein (Schagger & Pfeiffer (2001) J. Biol. Chem. 276:37861-37867), it was observed that S-nitrosation plateaud at a ˜7:1 mol/mol ratio (i.e., 7 mols S-nitrosothiol per mol complex I), while maximum complex I inhibition was ˜20-25%. This apparent mis-match between the stoichiometry of S-nitrosation (7:1) and the degree of inhibition (25%) may reflect S-nitrosation of complex I on multiple subunits. Alternatively, since the spectrophotometric complex I activity assay was performed at 340 nm, close to the absorption maxima of S-nitrosothiols (335 nm), S-nitrosothiols within complex I may have been destroyed during the assay, leading to underestimation of inhibition by S-nitrosation.
# Rat heart mitochondria were isolated using differential centrifugation (Tompkins, et al. (2005) Biochim. Biophys. Acta PMID: 16278076). Protein was determined by the Folin-phenol method (Lowry, et al. (1951) J. Bio. Chem. 193:265-75) against a standard curve constructed using bovine serum albumin. Mitochondrial incubations and all subsequent steps were performed in the dark. One mg of mitochondrial protein was suspended in 1 mL of mitochondrial respiration buffer (Tompkins, et al. (2005) supra) containing respiratory substrates glutamate (5 mM), malate (2.5 mM) and succinate (5 mM). […]
# [5] = system: isolated mitochondria; test: Chemiluminescent NO analysis of total S-nitrosothiol in isolated mitochondria; type: biochemical, rat
# Method: At concentrations above 250 μM, secondary reactions such as free S-nitrosothiol or NO2^− formation were observed.
# as §1
# Chemiluminescent analysis of S-nitrosothiol content was performed on samples originating from blue-native gels, intact mitochondria and SUPEROSE™ 6 chromatography fractions, according to known methodologies (Yang, et al. (2003) Free Radic. Res. 37:1-10). […] Each sample was run in duplicate and quantified using a standard curve created with known concentrations of NaNO2.
# T1 sequence (Q66HF1 24-727, one chain of several): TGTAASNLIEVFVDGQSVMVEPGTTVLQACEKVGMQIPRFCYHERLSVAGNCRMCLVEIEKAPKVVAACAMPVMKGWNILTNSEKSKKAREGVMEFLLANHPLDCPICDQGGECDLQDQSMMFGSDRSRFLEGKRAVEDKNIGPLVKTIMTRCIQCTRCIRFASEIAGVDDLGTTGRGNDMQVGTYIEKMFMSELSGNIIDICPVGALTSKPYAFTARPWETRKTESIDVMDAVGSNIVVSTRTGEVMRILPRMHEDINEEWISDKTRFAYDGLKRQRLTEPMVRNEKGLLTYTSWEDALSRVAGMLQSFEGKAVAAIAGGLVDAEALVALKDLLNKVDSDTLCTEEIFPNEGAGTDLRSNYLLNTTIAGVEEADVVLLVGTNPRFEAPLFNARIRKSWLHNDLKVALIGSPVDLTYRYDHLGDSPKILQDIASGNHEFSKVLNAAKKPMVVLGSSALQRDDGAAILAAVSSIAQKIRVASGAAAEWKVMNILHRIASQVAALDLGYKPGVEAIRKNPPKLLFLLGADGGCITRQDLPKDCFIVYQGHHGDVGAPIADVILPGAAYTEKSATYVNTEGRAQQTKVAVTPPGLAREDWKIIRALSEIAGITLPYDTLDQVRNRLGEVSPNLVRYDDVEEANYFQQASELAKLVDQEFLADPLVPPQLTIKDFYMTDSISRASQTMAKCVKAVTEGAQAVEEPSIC
structure (smiles),measurement,setting,value
CC(S)C(=O)NCC(=O)O (stereo not drawn) [2-Mercaptopropionylglycine],cell entry and mitochondrial accumulation,[1],readily enters cells and accumulates in mitochondria
NCCN(CCN)/[N+]([O-])=N/O [DETA-NONOate],"S-nitrosation of mitochondrial protein, comparison of NO* donors",[2],S-nitrosoglutathione resulted in far more S-nitrosation than DETA-NONOate
"O=NOO [ONOO^−, peroxynitrite]","S-nitrosation of mitochondrial protein, comparison of NO* donors",[2],S-nitrosoglutathione resulted in far more S-nitrosation than DETA-NONOate or ONOO^−
CC(SN=O)C(=O)NCC(=O)O (stereo not drawn) [S-nitroso-2-mercaptopropylglycine],S-nitrosation of mitochondrial proteins compared with S-nitrosoglutathione,"[2]; same concentrations, 10-100 μM",much greater degree of S-nitrosation of mitochondrial proteins than did S-nitrosoglutathione
same,protection of cardiomyocyte viability from ischemia-reperfusion injury,[3],significant protection of cardiomyocytes from ischemia-reperfusion injury
N[C@@H](CCC(=O)N[C@@H](CSN=O)C(=O)NCC(=O)O)C(=O)O [S-nitrosoglutathione],complex I inhibition and its reversibility,[4],complex I inhibition that was reversible by exposure of mitochondria to light
same,concentration at which formation of protein bound S-nitrosothiol saturates,[2]; biotin-switch and chemiluminescent data together,~250 µM
same,concentration at which plateau of mitochondrial protein S-nitrosation is reached,[2]; dose response over the range 50-250 μM,~200 µM
same,"S-nitrosation of mitochondrial protein, comparison of NO* donors",[2],far more S-nitrosation than DETA-NONOate or ONOO^−
same,concentration at which total S-nitrosothiol (free plus protein-bound) approaches saturation,[5]; 10 μM to 1 mM,~300 µM
same,total S-nitrosothiol,[5]; 100 μM treatment,~1700 pmol/mg mitochondrial protein
same,concentrations at which secondary reactions such as free S-nitrosothiol or NO2− formation were observed,[5]; isolated mitochondria,above 250 μM
